According to patent publication US9695155B2, “Herbicidal substituted pyrimidinyloxy benzene compounds” (E. I. DU PONT DE NEMOURS AND COMPANY, priority 2013, dated 2017):

Legend:
[1] = tested on: barnyardgrass; test: Test A preemergence; format: in vivo, Echinochloa crus-galli; settings: for Plant response rating, Barnyardgrass: 125 g ai/ha, 0 to 100 scale where 0 is no effect and 100 is complete control; for Barnyardgrass plant response rating: 500 g ai/ha, 0 to 100 scale, 0 no effect, 100 complete control, approx. 10 days
Outline: (§1)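 Pre- and postemergence greenhouse screen. Soil: loam + sand. Spray carrier: solvent mixture, non-phytotoxic, with surfactant. Post timing at 1–2 leaves, height 2–10 cm. Readout: visual injury on a 0–100 scale roughly 10 days after application, untreated plants as reference.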

[2] = tested on: large (Lg) crabgrass; test: Test A preemergence; format: in vivo, Digitaria sanguinalis; settings: for Plant response rating, Crabgrass, Large: 125 g ai/ha, 0 to 100 scale where 0 is no effect and 100 is complete control; for Crabgrass, Large plant response rating: 500 g ai/ha, 0 to 100 scale, 0 no effect, 100 complete control, approx. 10 days
Outline: as §1

[3] = tested on: giant foxtail; test: Test A preemergence; format: in vivo, Setaria faberii; settings: for Plant response rating, Foxtail, Giant: 125 g ai/ha, 0 to 100 scale where 0 is no effect and 100 is complete control; for Foxtail, Giant plant response rating: 500 g ai/ha, 0 to 100 scale, 0 no effect, 100 complete control, approx. 10 days
Outline: as §1

[4] = tested on: morningglory; test: Test A preemergence; format: in vivo, Ipomoea spp.; settings: for Plant response rating, Morningglory: 125 g ai/ha, 0 to 100 scale where 0 is no effect and 100 is complete control; for Morningglory plant response rating: 500 g ai/ha, 0 to 100 scale, 0 no effect, 100 complete control, approx. 10 days
Outline: as §1

[5] = tested on: pigweed; test: Test A preemergence; format: in vivo, Amaranthus retroflexus; settings: for Plant response rating, Pigweed: 125 g ai/ha, 0 to 100 scale where 0 is no effect and 100 is complete control; for Pigweed plant response rating: 500 g ai/ha, 0 to 100 scale, 0 no effect, 100 complete control, approx. 10 days
Outline: as §1

[6] = tested on: velvetleaf; test: Test A preemergence; format: in vivo, Abutilon theophrasti; settings: for Plant response rating, Velvetleaf: 125 g ai/ha, 0 to 100 scale where 0 is no effect and 100 is complete control; for Velvetleaf plant response rating: 500 g ai/ha, 0 to 100 scale, 0 no effect, 100 complete control, approx. 10 days
Outline: as §1

[7] = tested on: wheat; test: Test A preemergence; format: in vivo, Triticum aestivum; settings: for Plant response rating, Wheat: 125 g ai/ha, 0 to 100 scale where 0 is no effect and 100 is complete control; for Wheat plant response rating: 500 g ai/ha, 0 to 100 scale, 0 no effect, 100 complete control, approx. 10 days
Outline: as §1

[8] = tested on: corn; test: Test A preemergence; format: in vivo, Zea mays; settings: for Plant response rating, Corn: 125 g ai/ha, 0 to 100 scale where 0 is no effect and 100 is complete control; for Corn plant response rating: 500 g ai/ha, 0 to 100 scale, 0 no effect, 100 complete control, approx. 10 days
Outline: as §1

[9] = tested on: barnyardgrass; test: Test A postemergence; format: in vivo, Echinochloa crus-galli
Outline: as §1

[10] = tested on: large (Lg) crabgrass; test: Test A postemergence; format: in vivo, Digitaria sanguinalis
Outline: as §1

[11] = tested on: giant foxtail; test: Test A postemergence; format: in vivo, Setaria faberii
Outline: as §1

[12] = tested on: morningglory; test: Test A postemergence; format: in vivo, Ipomoea spp.
Outline: as §1

[13] = tested on: pigweed; test: Test A postemergence; format: in vivo, Amaranthus retroflexus
Outline: as §1

[14] = tested on: velvetleaf; test: Test A postemergence; format: in vivo, Abutilon theophrasti
Outline: as §1

[15] = tested on: wheat; test: Test A postemergence; format: in vivo, Triticum aestivum
Outline: as §1

[16] = tested on: corn; test: Test A postemergence; format: in vivo, Zea mays
Outline: as §1

[17] = tested on: rice; test: Test B flooded paddy test; format: in vivo, Oryza sativa; settings: Flood, 250 g ai/ha; 0 to 100 scale where 0 is no effect and 100 is complete control
Outline: (§2)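 Plants were grown to the 2-leaf stage, then pots were flooded to 3 cm above the soil and compounds were applied directly into the paddy water. That depth was held throughout, and after 13 to 15 days in the greenhouse injury was rated visually against controls on a 0–100 scale (0 no effect, 100 complete control).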

[18] = tested on: sedge, umbrella; test: Test B flooded paddy test; format: in vivo, Cyperus difformis; settings: Flood, 250 g ai/ha; 0 to 100 scale where 0 is no effect and 100 is complete control
Outline: as §2

[19] = tested on: Heteranthera limosa; test: Test B flooded paddy test; format: in vivo; settings: Flood, 250 g ai/ha; 0 to 100 scale where 0 is no effect and 100 is complete control
Outline: as §2

[20] = tested on: barnyardgrass; test: Test B flooded paddy test; format: in vivo, Echinochloa crus-galli; settings: Flood, 250 g ai/ha; 0 to 100 scale where 0 is no effect and 100 is complete control
Outline: as §2

[21] = 125 g ai/ha, 0 to 100 scale where 0 is no effect and 100 is complete control
[22] = 500 g ai/ha, 0 to 100 scale, 0 no effect, 100 complete control
[23] = 500 g ai/ha, 0 to 100 scale where 0 is no effect and 100 is complete control

Structure (SMILES) | Plant response rating, Barnyardgrass [1] | Barnyardgrass plant response rating [1] | Plant response rating, Crabgrass, Large [2] | Crabgrass, Large plant response rating [2] | Plant response rating, Foxtail, Giant [3] | Foxtail, Giant plant response rating [3] | Plant response rating, Morningglory [4] | Morningglory plant response rating [4] | Plant response rating, Pigweed [5] | Pigweed plant response rating [5] | Plant response rating, Velvetleaf [6] | Velvetleaf plant response rating [6] | Plant response rating, Wheat [7] | Wheat plant response rating [7] | Plant response rating, Corn [8] | Corn plant response rating [8] | Plant response rating, Barnyardgrass [9, 21] | Plant response rating, Barnyardgrass [9, 22] | Plant response rating, Crabgrass, Large [10, 21] | Plant response rating, Crabgrass, Large [10, 22] | also measured
Cc1cccc(Oc2ncc(Br)cn2)c1-n1cc(Br)cn1 [Compound 45] | 30 | 100 | 90 | 100 | 90 | 100 | 0 | 10 | 100 | 100 | 100 | 100 | 0 | 0 | 0 | 20 | 40 | 100 | 60 | 100 | Plant response rating, Foxtail, Giant [11, 21]: 70; Plant response rating, Foxtail, Giant [11, 22]: 90; Plant response rating, Morningglory [12, 21]: 10; Plant response rating, Morningglory [12, 22]: 20; Plant response rating, Pigweed [13, 21]: 60; Plant response rating, Pigweed [13, 22]: 80; Plant response rating, Velvetleaf [14, 21]: 100; Plant response rating, Velvetleaf [14, 22]: 100; Plant response rating, Wheat [15, 21]: 0; Plant response rating, Wheat [15, 22]: 40; Plant response rating, Corn [16, 21]: 10; Plant response rating, Corn [16, 22]: 70; Plant response rating, Rice [17]: 0; Plant response rating, Sedge, Umbrella [18]: 75; Plant response rating, Ducksalad [19]: 85; Plant response rating, Barnyardgrass [20]: 30
C=Cc1cnn(-c2ccccc2Oc2ncc(Cl)cn2)c1 [Compound 31] | 20 | 50 | 50 | 90 | 20 | 90 | 0 | 0 | 40 | 60 | 50 | 90 | 0 | 0 | 0 | 0 | 10 | 50 | 50 | 60 | Plant response rating, Foxtail, Giant [11, 21]: 40; Plant response rating, Foxtail, Giant [11, 22]: 50; Plant response rating, Morningglory [12, 21]: 0; Plant response rating, Morningglory [12, 22]: 30; Plant response rating, Pigweed [13, 21]: 40; Plant response rating, Pigweed [13, 22]: 70; Plant response rating, Velvetleaf [14, 21]: 100; Plant response rating, Velvetleaf [14, 22]: 100; Plant response rating, Wheat [15, 21]: 0; Plant response rating, Wheat [15, 22]: 0; Plant response rating, Corn [16, 21]: 0; Plant response rating, Corn [16, 22]: 20; Plant response rating, Rice [17]: 25; Plant response rating, Sedge, Umbrella [18]: 30; Plant response rating, Ducksalad [19]: 80; Plant response rating, Barnyardgrass [20]: 0
FC(F)(F)c1cccc(Oc2ncc(Br)cn2)c1-n1cc(Br)cn1 [Compound 77] | 50 | 90 | 90 | 100 | 90 | 100 | 10 | 60 | 100 | 100 | 60 | 100 | 0 | 0 | 0 | 0 | 40 | 70 | 50 | 90 | Plant response rating, Foxtail, Giant [11, 21]: 50; Plant response rating, Foxtail, Giant [11, 23]: 90; Plant response rating, Morningglory [12, 21]: 70; Plant response rating, Morningglory [12, 23]: 100; Plant response rating, Pigweed [13, 21]: 100; Plant response rating, Pigweed [13, 23]: 100; Plant response rating, Velvetleaf [14, 21]: 80; Plant response rating, Velvetleaf [14, 23]: 100; Plant response rating, Wheat [15, 21]: 0; Plant response rating, Wheat [15, 23]: 30; Plant response rating, Corn [16, 21]: 20; Plant response rating, Corn [16, 22]: 40; Plant response rating, Rice [17]: 20; Plant response rating, Sedge, Umbrella [18]: 70; Plant response rating, Ducksalad [19]: 40; Plant response rating, Barnyardgrass [20]: 0
